Results as given in patent publication US20190216761A1, “COMPOSITIONS COMPRISING 15-HEPE AND METHODS OF USING THE SAME” (Afimmune Limited, priority 2015, published 2019).
Marks after values point to notes of the source that are not given here.

Legend:
Type in all cases: cell-based
hPPARδ [1] = biological target: T1, hPPARδ (Homo sapiens, UniProt Q03181); test: PPAR antagonist reporter assay (reference agonist at EC80)
T1 construct: expressed in transfected cells
T1 sequence (Q03181 211-439 limits assumed): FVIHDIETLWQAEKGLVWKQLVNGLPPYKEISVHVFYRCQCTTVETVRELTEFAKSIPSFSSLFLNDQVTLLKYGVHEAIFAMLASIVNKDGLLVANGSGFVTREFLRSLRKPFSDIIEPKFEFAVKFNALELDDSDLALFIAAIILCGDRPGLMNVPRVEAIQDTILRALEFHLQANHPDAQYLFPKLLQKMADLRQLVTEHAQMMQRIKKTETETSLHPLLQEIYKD
Procedure: (§1) This study utilized proprietary reporter cells expressing a hybrid receptor comprising the N-terminal Gal4 DNA binding domain fused to the ligand binding domain of the specific human nuclear receptor (hPPARα, hPPARδ, and hPPARγ) and rat nuclear receptor (rPPARα, rPPARδ, and rPPARγ). The reporter vectors used in this Example comprise the firefly luciferase gene functionally linked to the Gal4 upstream activation sequence.
(§2) Nuclear Receptor assay was performed by suspending Reporter Cells in CRM containing 10% charcoal stripped FBS. 2×-EC80 concentrations of the appropriate reference agonist were then added to the Reporter Cell suspension, and 100 μL of the mixture dispensed into wells of a white 96-well plate. Test compounds were diluted using compound screening medium (CSM) containing 10% charcoal stripped FBS to generate “2×-concentration” treatment media. Immediately after this dilution step, 100 μL of each diluted 2×-concentration treatment medium was dispensed (in triplicate) into the Reporter Cell-containing assay wells.
(§3) After incubation at 37° C. for 24 hours, the treatment media was discarded. Each well was rinsed once with LCM Buffer; LCM substrate was then added. After incubation for 30 minutes at 37° C., fluorescence was measured to determine the relative number of live cells per assay well. LCM substrate was then discarded and 100 μL of Luciferase Detection Reagent substrate was added to each well. RLUs were quantified from each well to determine nuclear receptor activities.

hPPARα [2] = biological target: T2, hPPARα (Homo sapiens, UniProt Q07869); test: as above
T2 construct: expressed in transfected cells
T2 sequence (Q07869 239-466 limits assumed): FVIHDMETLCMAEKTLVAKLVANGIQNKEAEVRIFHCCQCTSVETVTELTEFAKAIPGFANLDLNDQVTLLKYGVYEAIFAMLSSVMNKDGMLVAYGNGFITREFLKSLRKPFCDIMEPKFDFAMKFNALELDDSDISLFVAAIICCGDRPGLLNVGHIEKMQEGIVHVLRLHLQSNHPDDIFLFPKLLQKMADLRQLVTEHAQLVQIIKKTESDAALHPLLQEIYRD
Procedure: as §1, §2, §3

rPPARα = biological target: T3, rPPARα (Rattus norvegicus, UniProt P37230); test: as above
T3 construct: expressed in transfected cells
T3 sequence (P37230 239-466 limits assumed): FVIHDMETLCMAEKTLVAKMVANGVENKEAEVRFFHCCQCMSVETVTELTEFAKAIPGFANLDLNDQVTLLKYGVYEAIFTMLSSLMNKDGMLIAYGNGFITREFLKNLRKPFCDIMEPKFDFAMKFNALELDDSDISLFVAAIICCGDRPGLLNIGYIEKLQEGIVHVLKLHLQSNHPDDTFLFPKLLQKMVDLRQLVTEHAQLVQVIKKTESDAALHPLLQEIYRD
Procedure: as §1, §2, §3

rPPARγ [3] = biological target: T4, rPPARγ (Rattus norvegicus, UniProt O88275); test: as above
T4 construct: expressed in transfected cells
T4 sequence (O88275 238-503 limits assumed): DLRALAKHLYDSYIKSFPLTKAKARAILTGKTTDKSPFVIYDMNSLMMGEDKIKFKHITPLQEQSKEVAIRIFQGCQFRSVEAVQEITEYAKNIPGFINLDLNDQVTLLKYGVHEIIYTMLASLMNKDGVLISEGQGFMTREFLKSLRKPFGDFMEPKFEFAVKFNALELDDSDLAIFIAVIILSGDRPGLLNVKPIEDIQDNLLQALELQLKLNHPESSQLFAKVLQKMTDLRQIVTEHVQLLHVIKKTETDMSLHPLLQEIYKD
Procedure: as §1, §2, §3

hPPARδ [4] = biological target: T1, hPPARδ; test: PPAR agonist reporter assay (Gal4 hybrid receptor, luciferase)
Procedure: as §1
(§4) Nuclear Receptor assay was performed by dispensing 100 μL of a suspension of Reporter Cells in Cell Recovery Medium (CRM) containing 10% charcoal stripped FBS into each well of a white 96-well plate. Test compounds were diluted using compound screening medium (CSM) containing 10% charcoal stripped FBS to generate “2×-concentration” treatment media. Immediately after this dilution step, 100 μL of each diluted 2×-concentration treatment medium was dispensed (in triplicate) into the Reporter Cell-containing assay wells.
(§5) After incubation at 37° C. for 24 hours, the treatment media was discarded. 100 μL of Luciferase Detection Reagent substrate was added to each well and RLUs were quantified from each well to determine nuclear receptor activities.

hPPARα [5] = biological target: T2, hPPARα; test: as above
Procedure: as §1, §4, §5

rPPARγ [6] = biological target: T4, rPPARγ; test: as above
Procedure: as §1, §4, §5

[7] = at low to higher doses in the dose response curve

% Inhibition of agonist-stimulated receptor activity vs. 0.10% DMSO, hPPAR-δ (hPPARδ [1]; 137 nM): 0.68%
% Inhibition of agonist-stimulated receptor activity vs. 0.10% DMSO, hPPAR-δ (hPPARδ [1]; 412 nM): −7.7%
% Inhibition of agonist-stimulated receptor activity vs. 0.10% DMSO, hPPAR-δ (hPPARδ [1]; 1,235 nM): −11%
% Inhibition of agonist-stimulated receptor activity vs. 0.10% DMSO, hPPAR-δ (hPPARδ [1]; 3,704 nM): −10%
% Inhibition of agonist-stimulated receptor activity vs. 0.10% DMSO, hPPAR-δ (hPPARδ [1]; 11,111 nM): −10%
% Inhibition of agonist-stimulated receptor activity vs. 0.10% DMSO, hPPAR-δ (hPPARδ [1]; 33,333 nM): 1.6%
% Inhibition of agonist-stimulated receptor activity vs. 0.10% DMSO, hPPAR-δ (hPPARδ [1]; 100,000 nM): 29%
% Inhibition of agonist-stimulated receptor activity vs. 0.10% DMSO, hPPAR-δ (hPPARδ [1]; 300,000 nM): 100%
inhibition of human PPARs (in words), hPPARδ (hPPARδ [1]; at higher test concentrations): apparent inhibition
% Inhibition of agonist-stimulated receptor activity vs. 0.10% DMSO, hPPAR-α (hPPARα [2]; 137 nM): 49%
% Inhibition of agonist-stimulated receptor activity vs. 0.10% DMSO, hPPAR-α (hPPARα [2]; 412 nM): 21%
% Inhibition of agonist-stimulated receptor activity vs. 0.10% DMSO, hPPAR-α (hPPARα [2]; 1,235 nM): 13%
% Inhibition of agonist-stimulated receptor activity vs. 0.10% DMSO, hPPAR-α (hPPARα [2]; 3,704 nM): 14%
% Inhibition of agonist-stimulated receptor activity vs. 0.10% DMSO, hPPAR-α (hPPARα [2]; 11,111 nM): 14%
% Inhibition of agonist-stimulated receptor activity vs. 0.10% DMSO, hPPAR-α (hPPARα [2]; 33,333 nM): 26%
% Inhibition of agonist-stimulated receptor activity vs. 0.10% DMSO, hPPAR-α (hPPARα [2]; 100,000 nM): 40%
% Inhibition of agonist-stimulated receptor activity vs. 0.10% DMSO, hPPAR-α (hPPARα [2]; 300,000 nM): 83%
inhibition of human PPARs (in words), hPPARα (hPPARα [2]; at higher test concentrations): apparent inhibition
% Inhibition of agonist-stimulated receptor activity vs. 0.10% DMSO, rPPAR-α (rPPARα; 137 nM): 42%
% Inhibition of agonist-stimulated receptor activity vs. 0.10% DMSO, rPPAR-α (rPPARα; 412 nM): 26%
% Inhibition of agonist-stimulated receptor activity vs. 0.10% DMSO, rPPAR-α (rPPARα; 1,235 nM): 25%
% Inhibition of agonist-stimulated receptor activity vs. 0.10% DMSO, rPPAR-α (rPPARα; 3,704 nM): 21%
% Inhibition of agonist-stimulated receptor activity vs. 0.10% DMSO, rPPAR-α (rPPARα; 11,111 nM): 21%
% Inhibition of agonist-stimulated receptor activity vs. 0.10% DMSO, rPPAR-α (rPPARα; 33,333 nM): 38%
% Inhibition of agonist-stimulated receptor activity vs. 0.10% DMSO, rPPAR-α (rPPARα; 100,000 nM): 79%
% Inhibition of agonist-stimulated receptor activity vs. 0.10% DMSO, rPPAR-α (rPPARα; 300,000 nM): 100%
inhibition of rat PPARs (in words), rPPARα (rPPARα; at higher test concentrations): apparent inhibition
% Inhibition of agonist-stimulated receptor activity vs. 0.10% DMSO, rPPAR-γ (rPPARγ [3]; 137 nM): 10%
% Inhibition of agonist-stimulated receptor activity vs. 0.10% DMSO, rPPAR-γ (rPPARγ [3]; 412 nM): −13%
% Inhibition of agonist-stimulated receptor activity vs. 0.10% DMSO, rPPAR-γ (rPPARγ [3]; 1,235 nM): −7.6%
% Inhibition of agonist-stimulated receptor activity vs. 0.10% DMSO, rPPAR-γ (rPPARγ [3]; 3,704 nM): −6.7%
% Inhibition of agonist-stimulated receptor activity vs. 0.10% DMSO, rPPAR-γ (rPPARγ [3]; 11,111 nM): −4.1%
% Inhibition of agonist-stimulated receptor activity vs. 0.10% DMSO, rPPAR-γ (rPPARγ [3]; 33,333 nM): 8.4%
% Inhibition of agonist-stimulated receptor activity vs. 0.10% DMSO, rPPAR-γ (rPPARγ [3]; 100,000 nM): 26%
% Inhibition of agonist-stimulated receptor activity vs. 0.10% DMSO, rPPAR-γ (rPPARγ [3]; 300,000 nM): 93%
inhibition of rat PPARs (in words), rPPARγ (rPPARγ [3]; at higher test concentrations): apparent inhibition
Fold-Activation (vs. 0.10% DMSO) hPPAR-δ (hPPARδ [4]; 137 nM): 1.4 fold
Fold-Activation (vs. 0.10% DMSO) hPPAR-δ (hPPARδ [4]; 412 nM): 2.1* fold
Fold-Activation (vs. 0.10% DMSO) hPPAR-δ (hPPARδ [4]; 1,235 nM): 2.1* fold
Fold-Activation (vs. 0.10% DMSO) hPPAR-δ (hPPARδ [4]; 3,704 nM): 2.4* fold
Fold-Activation (vs. 0.10% DMSO) hPPAR-δ (hPPARδ [4]; 11,111 nM): 5.6* fold
Fold-Activation (vs. 0.10% DMSO) hPPAR-δ (hPPARδ [4]; 33,333 nM): 4.1* fold
Fold-Activation (vs. 0.10% DMSO) hPPAR-δ (hPPARδ [4]; 100,000 nM): 8.0* fold
Fold-Activation (vs. 0.10% DMSO) hPPAR-δ (hPPARδ [4]; 300,000 nM): 0.073 fold
agonism activity against human PPARδ (in words) (hPPARδ [4]; [7]): moderate agonism activity
Fold-Activation (vs. 0.10% DMSO) hPPAR-α (hPPARα [5]; 137 nM): 0.90 fold
Fold-Activation (vs. 0.10% DMSO) hPPAR-α (hPPARα [5]; 412 nM): 1.1 fold
Fold-Activation (vs. 0.10% DMSO) hPPAR-α (hPPARα [5]; 1,235 nM): 1.1 fold
Fold-Activation (vs. 0.10% DMSO) hPPAR-α (hPPARα [5]; 3,704 nM): 2.1* fold
Fold-Activation (vs. 0.10% DMSO) hPPAR-α (hPPARα [5]; 11,111 nM): 4.2* fold
Fold-Activation (vs. 0.10% DMSO) hPPAR-α (hPPARα [5]; 33,333 nM): 6.8* fold
Fold-Activation (vs. 0.10% DMSO) hPPAR-α (hPPARα [5]; 100,000 nM): 5.0* fold
Fold-Activation (vs. 0.10% DMSO) hPPAR-α (hPPARα [5]; 300,000 nM): 0.98 fold
agonism activity against human PPARα (in words) (hPPARα [5]; [7]): moderate agonism activity
Fold-Activation (vs. 0.10% DMSO) rPPAR-γ (rPPARγ [6]; 137 nM): 1.2 fold
Fold-Activation (vs. 0.10% DMSO) rPPAR-γ (rPPARγ [6]; 412 nM): 1.2 fold
Fold-Activation (vs. 0.10% DMSO) rPPAR-γ (rPPARγ [6]; 1,235 nM): 1.4 fold
Fold-Activation (vs. 0.10% DMSO) rPPAR-γ (rPPARγ [6]; 3,704 nM): 1.4 fold
Fold-Activation (vs. 0.10% DMSO) rPPAR-γ (rPPARγ [6]; 11,111 nM): 1.8 fold
Fold-Activation (vs. 0.10% DMSO) rPPAR-γ (rPPARγ [6]; 33,333 nM): 3.5* fold
Fold-Activation (vs. 0.10% DMSO) rPPAR-γ (rPPARγ [6]; 100,000 nM): 10* fold
Fold-Activation (vs. 0.10% DMSO) rPPAR-γ (rPPARγ [6]; 300,000 nM): 14* fold
agonism activity against rat PPARγ (in words) (rPPARγ [6]; at medium to higher doses in the dose response curve): mild to moderate agonism activity
SMILES: CC/C=C\C[C@H](O)/C=C/C=C\C/C=C\C/C=C\CCCC(=O)OCC [15-HEPE-EE, 15-HEPE ethyl ester]
